Data from the supplement of paper PMC10307832.

Tests used:
Test in all cases: relative viability (nuclei count vs DMSO), 5 days (fraction); higher = more cells survive
HCC-44 = system: HCC-44
In short: (§1)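 Nuclei were stained with Hoechst during a one-step fixation (final 0.05% Triton X-100, 1% formaldehyde, 1 ug/ml Hoechst) carried out 5 days after dosing, then counted on 4× images. The cells, lung cancer lines in 1536-well plates, had been dosed by pin tool the day after seeding with one drug alone or a fixed anchor-drug dose plus five library-drug doses (not always all listed) in √10 steps. Relative viability is the nuclei count in treated wells divided by that in vehicle wells, and each value is the median of duplicate plates.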

Calu-6 = system: Calu-6
In short: as §1

NCI-H1755 = system: NCI-H1755
In short: as §1

NCI-H1395 = system: NCI-H1395
In short: as §1

EBC-1 = system: EBC-1
In short: as §1

NCI-H1299 = system: NCI-H1299
In short: as §1

UMC-11 = system: UMC-11
In short: as §1

A549 = system: A549
In short: as §1

IA-LM = system: IA-LM
In short: as §1

HCC-15 = system: HCC-15
In short: as §1

NCI-H1703 = system: NCI-H1703
In short: as §1

EKVX = system: EKVX
In short: as §1

LCLC-103H = system: LCLC-103H
In short: as §1

O=c1cc(-c2cccc3c2Sc2ccccc2S3)oc(N2CCOCC2)c1 + CS(=O)(=O)CCNCc1ccc(-c2ccc3ncnc(Nc4ccc(OCc5cccc(F)c5)c(Cl)c4)c3c2)o1 [Lapatinib] (partner 2 µM)
relative viability (HCC-44; first compound 0.08 µM): 1.05
relative viability (HCC-44; first compound 0.253 µM): 1.21
relative viability (HCC-44; first compound 0.8 µM): 0.977
relative viability (HCC-44; first compound 2.53 µM): 0.928
relative viability (HCC-44; first compound 8 µM): 1.14
relative viability (Calu-6; first compound 0.08 µM): 1.16
relative viability (Calu-6; first compound 0.253 µM): 1.16
relative viability (Calu-6; first compound 0.8 µM): 1.03
relative viability (Calu-6; first compound 2.53 µM): 1.07
relative viability (Calu-6; first compound 8 µM): 1.15
relative viability (NCI-H1755; first compound 0.08 µM): 1.09
relative viability (NCI-H1755; first compound 0.253 µM): 1.06
relative viability (NCI-H1755; first compound 0.8 µM): 1.15
relative viability (NCI-H1755; first compound 2.53 µM): 1.03
relative viability (NCI-H1755; first compound 8 µM): 1.08
relative viability (NCI-H1395; first compound 0.08 µM): 0.971
relative viability (NCI-H1395; first compound 0.253 µM): 1.04
relative viability (NCI-H1395; first compound 0.8 µM): 1.02
relative viability (NCI-H1395; first compound 2.53 µM): 1.16
relative viability (NCI-H1395; first compound 8 µM): 0.949
relative viability (EBC-1; first compound 0.08 µM): 0.201
relative viability (EBC-1; first compound 0.253 µM): 0.191
relative viability (EBC-1; first compound 0.8 µM): 0.196
relative viability (EBC-1; first compound 2.53 µM): 0.204
relative viability (EBC-1; first compound 8 µM): 0.202
relative viability (NCI-H1299; first compound 0.08 µM): 0.972
relative viability (NCI-H1299; first compound 0.253 µM): 1
relative viability (NCI-H1299; first compound 0.8 µM): 0.997
relative viability (NCI-H1299; first compound 2.53 µM): 0.975
relative viability (NCI-H1299; first compound 8 µM): 0.96
relative viability (UMC-11; first compound 0.08 µM): 1.02
relative viability (UMC-11; first compound 0.253 µM): 1.28
relative viability (UMC-11; first compound 0.8 µM): 1.21
relative viability (UMC-11; first compound 2.53 µM): 0.78
relative viability (UMC-11; first compound 8 µM): 1.29
relative viability (A549; first compound 0.08 µM): 1.04
relative viability (A549; first compound 0.253 µM): 1.23
relative viability (A549; first compound 0.8 µM): 1.19
relative viability (A549; first compound 2.53 µM): 0.87
relative viability (A549; first compound 8 µM): 0.995
relative viability (IA-LM; first compound 0.08 µM): 1.16
relative viability (IA-LM; first compound 0.253 µM): 0.806
relative viability (IA-LM; first compound 0.8 µM): 0.693
relative viability (IA-LM; first compound 8 µM): 1.2
relative viability (HCC-15; first compound 0.08 µM): 0.885
relative viability (HCC-15; first compound 0.253 µM): 1.02
relative viability (HCC-15; first compound 0.8 µM): 0.873
relative viability (HCC-15; first compound 2.53 µM): 0.82
relative viability (HCC-15; first compound 8 µM): 0.988
relative viability (NCI-H1703; first compound 0.08 µM): 0.886
relative viability (NCI-H1703; first compound 0.253 µM): 1.45
relative viability (NCI-H1703; first compound 0.8 µM): 0.94
relative viability (NCI-H1703; first compound 2.53 µM): 1.1
relative viability (NCI-H1703; first compound 8 µM): 0.971
relative viability (EKVX; first compound 0.08 µM): 0.226
relative viability (EKVX; first compound 0.253 µM): 0.186
relative viability (EKVX; first compound 0.8 µM): 0.166
relative viability (EKVX; first compound 2.53 µM): 0.186
relative viability (EKVX; first compound 8 µM): 0.202

CCN(CC)CCCCNc1ncc2cc(-c3cc(OC)cc(OC)c3)c(NC(=O)NC(C)(C)C)nc2n1 + CS(=O)(=O)N1CCN(Cc2cc3nc(-c4cccc5[nH]ncc45)nc(N4CCOCC4)c3s2)CC1 [Pictilisib] (partner 1 µM)
relative viability (HCC-44; first compound 0.01 µM): 0.687
relative viability (HCC-44; first compound 0.03162 µM): 0.746
relative viability (HCC-44; first compound 0.1 µM): 0.603
relative viability (HCC-44; first compound 0.3162 µM): 0.635
relative viability (HCC-44; first compound 1 µM): 0.451
relative viability (Calu-6; first compound 0.01 µM): 1.01
relative viability (Calu-6; first compound 0.03162 µM): 0.994
relative viability (Calu-6; first compound 0.1 µM): 1.12
relative viability (Calu-6; first compound 0.3162 µM): 1.09
relative viability (Calu-6; first compound 1 µM): 0.87
relative viability (NCI-H1755; first compound 0.01 µM): 0.403
relative viability (NCI-H1755; first compound 0.03162 µM): 0.386
relative viability (NCI-H1755; first compound 0.1 µM): 0.479
relative viability (NCI-H1755; first compound 0.3162 µM): 0.381
relative viability (NCI-H1755; first compound 1 µM): 0.258
relative viability (NCI-H1395; first compound 0.03162 µM): 0.486
relative viability (NCI-H1395; first compound 0.1 µM): 0.949
relative viability (NCI-H1395; first compound 0.3162 µM): 0.479
relative viability (NCI-H1395; first compound 1 µM): 0.346
relative viability (EBC-1; first compound 0.01 µM): 0.369
relative viability (EBC-1; first compound 0.03162 µM): 0.32
relative viability (EBC-1; first compound 0.1 µM): 0.342
relative viability (EBC-1; first compound 0.3162 µM): 0.37
relative viability (EBC-1; first compound 1 µM): 0.293
relative viability (NCI-H1299; first compound 0.01 µM): 0.883
relative viability (NCI-H1299; first compound 0.03162 µM): 0.845
relative viability (NCI-H1299; first compound 0.1 µM): 0.851
relative viability (NCI-H1299; first compound 0.3162 µM): 0.96
relative viability (NCI-H1299; first compound 1 µM): 0.775
relative viability (UMC-11; first compound 0.01 µM): 0.85
relative viability (UMC-11; first compound 0.03162 µM): 0.806
relative viability (UMC-11; first compound 0.1 µM): 0.987
relative viability (UMC-11; first compound 0.3162 µM): 0.989
relative viability (UMC-11; first compound 1 µM): 0.752
relative viability (A549; first compound 0.01 µM): 0.52
relative viability (A549; first compound 0.03162 µM): 0.543
relative viability (A549; first compound 0.1 µM): 0.562
relative viability (A549; first compound 0.3162 µM): 0.621
relative viability (A549; first compound 1 µM): 0.41
relative viability (IA-LM; first compound 0.01 µM): 0.329
relative viability (IA-LM; first compound 0.03162 µM): 0.329
relative viability (IA-LM; first compound 0.1 µM): 0.342
relative viability (IA-LM; first compound 0.3162 µM): 0.333
relative viability (IA-LM; first compound 1 µM): 0.265
relative viability (HCC-15; first compound 0.01 µM): 0.813
relative viability (HCC-15; first compound 0.03162 µM): 0.813
relative viability (HCC-15; first compound 0.1 µM): 0.766
relative viability (HCC-15; first compound 0.3162 µM): 0.929
relative viability (HCC-15; first compound 1 µM): 0.715
relative viability (NCI-H1703; first compound 0.01 µM): 0.233
relative viability (NCI-H1703; first compound 0.03162 µM): 0.222
relative viability (NCI-H1703; first compound 0.1 µM): 0.244
relative viability (NCI-H1703; first compound 0.3162 µM): 0.213
relative viability (NCI-H1703; first compound 1 µM): 0.252
relative viability (LCLC-103H; first compound 0.01 µM): 0.551
relative viability (LCLC-103H; first compound 0.03162 µM): 0.661
relative viability (LCLC-103H; first compound 0.1 µM): 0.595
relative viability (LCLC-103H; first compound 0.3162 µM): 0.553
relative viability (LCLC-103H; first compound 1 µM): 0.443
relative viability (EKVX; first compound 0.01 µM): 0.437
relative viability (EKVX; first compound 0.03162 µM): 0.455
relative viability (EKVX; first compound 0.1 µM): 0.42
relative viability (EKVX; first compound 0.3162 µM): 0.407
relative viability (EKVX; first compound 1 µM): 0.465
